# According to ChEMBL document CHEMBL4118205, “Design, synthesis and biological evaluation of artemisinin derivatives containing fluorine atoms as anticancer agents” (Bioorg Med Chem Lett, 2018):
# Calls of active or inactive are those of the source. The calls are words filed in the database; no cut-off is given here.
# What was measured:
# MCF7 [1] = assay: Cell cycle arrest in human MCF7 cells assessed as accumulation at S phase at 1 uM after 48 hrs by propidium iodide staining based flow cytometry (reference value: 41.55%); assay type: functional
# MCF7 [2] = assay: Induction of apoptosis in human MCF7 cells assessed as viable cells at 2.5 uM after 48 hrs by Annexin-V FITC/propidium iodide staining based flow cytometry (reference value: 88.59%); assay type: functional; details: MCF7, 48 h, read-out: Activity
# MCF7 [3] = assay: Induction of apoptosis in human MCF7 cells assessed as early apoptotic cells at 1 uM after 48 hrs by Annexin-V FITC/propidium iodide staining based flow cytometry (reference value: 0.50%); assay type: functional
# MCF7 [4] = assay: Cell cycle arrest in human MCF7 cells assessed as accumulation at G1 phase after 48 hrs by propidium iodide staining based flow cytometry; assay type: functional
# MCF7 [5] = assay: Cytotoxicity against human MCF7 cells assessed as reduction in cell viability after 72 hrs by MTT assay; assay type: functional, cell-based; details: MCF7, 72 h
# MCF7 [6] = assay: Induction of apoptosis in human MCF7 cells assessed as late apoptotic cells at 20 uM after 48 hrs by Annexin-V FITC/propidium iodide staining based flow cytometry (reference value: 6.22%); assay type: functional
# MCF7 [7] = assay: Induction of apoptosis in human MCF7 cells assessed as necrotic cells at 20 uM after 48 hrs by Annexin-V FITC/propidium iodide staining based flow cytometry (reference value: 4.69%); assay type: functional
# MCF7 [8] = assay: Cell cycle arrest in human MCF7 cells assessed as accumulation at S phase at 5 uM after 48 hrs by propidium iodide staining based flow cytometry (reference value: 41.55%); assay type: functional
# MCF7 [9] = assay: Induction of apoptosis in human MCF7 cells assessed as late apoptotic cells at 1 uM after 48 hrs by Annexin-V FITC/propidium iodide staining based flow cytometry (reference value: 6.22%); assay type: functional
# MCF7 [10] = assay: Cell cycle arrest in human MCF7 cells assessed as accumulation at G1 phase at 1 uM after 48 hrs by propidium iodide staining based flow cytometry (reference value: 45.21%); assay type: functional
# MCF7 [11] = assay: Induction of apoptosis in human MCF7 cells assessed as late apoptotic cells at 10 uM after 48 hrs by Annexin-V FITC/propidium iodide staining based flow cytometry (reference value: 6.22%); assay type: functional
# MCF7 [12] = assay: Cell cycle arrest in human MCF7 cells assessed as accumulation at G1 phase at 2.5 uM after 48 hrs by propidium iodide staining based flow cytometry (reference value: 45.21%); assay type: functional
# MCF7 [13] = assay: Cell cycle arrest in human MCF7 cells assessed as accumulation at G2 phase at 0.5 uM after 48 hrs by propidium iodide staining based flow cytometry (reference value: 13.24%); assay type: functional
# MCF7 [14] = assay: Induction of apoptosis in human MCF7 cells assessed as early apoptotic cells at 5 uM after 48 hrs by Annexin-V FITC/propidium iodide staining based flow cytometry (reference value: 0.50%); assay type: functional
# MCF7 [15] = assay: Induction of apoptosis in human MCF7 cells assessed as necrotic cells at 1 uM after 48 hrs by Annexin-V FITC/propidium iodide staining based flow cytometry (reference value: 4.69%); assay type: functional
# MCF7 [16] = assay: Induction of apoptosis in human MCF7 cells assessed as viable cells at 1 uM after 48 hrs by Annexin-V FITC/propidium iodide staining based flow cytometry (reference value: 88.59%); assay type: functional; details: MCF7, 48 h, read-out: Activity
# MCF7 [17] = assay: Cell cycle arrest in human MCF7 cells assessed as accumulation at S phase at 0.5 uM after 48 hrs by propidium iodide staining based flow cytometry (reference value: 41.55%); assay type: functional
# MCF7 [18] = assay: Induction of apoptosis in human MCF7 cells assessed as viable cells at 10 uM after 48 hrs by Annexin-V FITC/propidium iodide staining based flow cytometry (reference value: 88.59%); assay type: functional; details: MCF7, 48 h, read-out: Activity
# MCF7 [19] = assay: Cell cycle arrest in human MCF7 cells assessed as accumulation at G2 phase at 2.5 uM after 48 hrs by propidium iodide staining based flow cytometry (reference value: 13.24%); assay type: functional
# MCF7 [20] = assay: Induction of apoptosis in human MCF7 cells assessed as early apoptotic cells at 2.5 uM after 48 hrs by Annexin-V FITC/propidium iodide staining based flow cytometry (reference value: 0.50%); assay type: functional
# MCF7 [21] = assay: Induction of apoptosis in human MCF7 cells assessed as late apoptotic cells at 5 uM after 48 hrs by Annexin-V FITC/propidium iodide staining based flow cytometry (reference value: 6.22%); assay type: functional
# MCF7 [22] = assay: Induction of apoptosis in human MCF7 cells assessed as early apoptotic cells at 10 uM after 48 hrs by Annexin-V FITC/propidium iodide staining based flow cytometry (reference value: 0.50%); assay type: functional
# MCF7 [23] = assay: Induction of apoptosis in human MCF7 cells assessed as granular apoptotic body formation up to 20 uM after 48 hrs by Hoechst 33258 staining based fluorescence microscopic method; assay type: functional, cell-based
# A-375 = assay: Cytotoxicity against human A375 cells assessed as reduction in cell viability after 72 hrs by MTT assay; assay type: functional, cell-based; details: A-375, 72 h
# L02 = assay: Cytotoxicity against human L02 cells assessed as reduction in cell viability after 72 hrs by MTT assay; assay type: functional, cell-based; details: L02, 72 h
# SH-SY5Y = assay: Cytotoxicity against human SH-SY5Y cells assessed as reduction in cell viability after 72 hrs by MTT assay; assay type: functional, cell-based
# MCF7 [24] = assay: Cell cycle arrest in human MCF7 cells assessed as accumulation at G1 phase at 0.5 uM after 48 hrs by propidium iodide staining based flow cytometry (reference value: 45.21%); assay type: functional
# MCF7 [25] = assay: Induction of apoptosis in human MCF7 cells assessed as necrotic cells at 10 uM after 48 hrs by Annexin-V FITC/propidium iodide staining based flow cytometry (reference value: 4.69%); assay type: functional
# A549 = assay: Cytotoxicity against human A549 cells assessed as reduction in cell viability after 72 hrs by MTT assay; assay type: functional, cell-based; details: A549, 72 h
# MCF7 [26] = assay: Induction of apoptosis in human MCF7 cells assessed as early apoptotic cells at 20 uM after 48 hrs by Annexin-V FITC/propidium iodide staining based flow cytometry (reference value: 0.50%); assay type: functional
# MCF7 [27] = assay: Cell cycle arrest in human MCF7 cells assessed as accumulation at G1 phase at 5 uM after 48 hrs by propidium iodide staining based flow cytometry (reference value: 45.21%); assay type: functional
# MCF7 [28] = assay: Induction of apoptosis in human MCF7 cells assessed as cell shrinkage up to 20 uM after 48 hrs by Hoechst 33258 staining based fluorescence microscopic method; assay type: functional
# MCF7 [29] = assay: Cell cycle arrest in human MCF7 cells assessed as accumulation at S phase at 10 uM after 48 hrs by propidium iodide staining based flow cytometry (reference value: 41.55%); assay type: functional
# MCF7 [30] = assay: Induction of apoptosis in human MCF7 cells assessed as late apoptotic cells at 2.5 uM after 48 hrs by Annexin-V FITC/propidium iodide staining based flow cytometry (reference value: 6.22%); assay type: functional
# MCF7 [31] = assay: Induction of apoptosis in human MCF7 cells assessed as necrotic cells at 5 uM after 48 hrs by Annexin-V FITC/propidium iodide staining based flow cytometry (reference value: 4.69%); assay type: functional
# MCF7 [32] = assay: Induction of apoptosis in human MCF7 cells assessed as viable cells at 20 uM after 48 hrs by Annexin-V FITC/propidium iodide staining based flow cytometry (reference value: 88.59%); assay type: functional; details: MCF7, 48 h, read-out: Activity
compound,measurement,setting,value
C[C@H]1[C@H](N2CCN(C(=O)Nc3ccc(OC(F)(F)F)cc3)CC2)O[C@@H]2O[C@@]3(C)CC[C@H]4[C@H](C)CC[C@@H]1[C@@]24OO3,Activity,MCF7 [1],33.33%
same,viability at 2.5 µM,MCF7 [2],59.5%
same,Activity,MCF7 [3],0.48%
same,Activity,MCF7 [4],Dose-dependent effect
same,IC50,MCF7 [5],2.1 µM
same,Activity,MCF7 [6],68.8%
same,Activity,MCF7 [7],10.18%
same,Activity,MCF7 [8],15.49%
same,Activity,MCF7 [9],7.01%
same,Activity,MCF7 [10],56.57%
same,Activity,MCF7 [11],53.36%
same,Activity,MCF7 [12],64.46%
same,Activity,MCF7 [13],12.33%
same,Activity,MCF7 [14],1.38%
same,Activity,MCF7 [15],8.1%
same,viability at 1 µM,MCF7 [16],84.4%
same,Activity,MCF7 [17],39.72%
same,viability at 10 µM,MCF7 [18],28.7%
same,Activity,MCF7 [19],9.18%
same,Activity,MCF7 [20],0.66%
same,Activity,MCF7 [21],33.62%
same,Activity,MCF7 [22],0.8%
same,Activity,MCF7 [23],Active
same,IC50,A-375,3.4 µM
same,IC50,L02,6.7 µM
same,IC50,SH-SY5Y,3.6 µM
same,Activity,MCF7 [24],47.95%
same,Activity,MCF7 [25],17.18%
same,IC50,A549,19.9 µM
same,Activity,MCF7 [26],4.78%
same,Activity,MCF7 [27],76.68%
same,Activity,MCF7 [28],Active
same,Activity,MCF7 [29],9.2%
same,Activity,MCF7 [30],19.17%
same,Activity,MCF7 [31],21.51%
same,viability at 20 µM,MCF7 [32],16.2%
